Where two headings read alike, the source gives them in different places.
Tests used:
TC1-Lu = test: MTT cytotoxicity assay, TC1-Lu; settings: read-out: cytotoxicity IC50 TC1-Lu
Method: (§1) Cell lines and cytotoxicity assays: All cell lines were obtained from the American Type Culture Collection (ATCC) and cultured in the specified medium supplemented with 10% fetal bovine serum, 100 IU/mL penicillin, and 100 μg/mL streptomycin at 37° C. in a humidified 5% CO2/95% air incubator. […] To assess drug cytotoxicity, cells were seeded at 2,500 cells/well (10,000 cells/well for MM lines) in 100 μL medium in 96-well plate and after 24 treated with compounds for 72 h, incubated according to the manufacturer's protocol with the Thiazolyl Blue Tetrazolium Bromide (Sigma, M2128) and A570 measured using a Benchmark Plus microplate spectrophotometer (BIO-RAD). IC50 data was analyzed by Graphpad Prism software. In the chirality studies the cells were treated with compounds for 48 h, and the cells were incubated and measured via the preceeding protocols.

[1] = MTT cytotoxicity assay, RPE1; settings: human
Method: as §1

intracellular ATP = test: Luciferase-based ATP measurement, ES2 cells; format: cell-based, human; settings: luciferase expressing ES2 cells, 4 hr, sublethal doses
Method: Briefly, firefly luciferase expressing ES2 cells were treated for 4 hr with compounds at sublethal doses and the bioluminescence was measured in intact cells using luminometer by adding luciferin. […] This is associated with enhanced glycolysis while bortezomib suppresses oxidative phosphorylation (OXPHOS) (66).
ATP measurement assay: To measure ATP levels in cells, luciferase based bioluminescence assay was performed. Briefly cells stably expressing firefly luciferase plated in a 6 well plate (250,000 cells/well) in growth medium. After 24 h incubation, cells were treated with compounds at indicated concentrations for the period of 4 h and the bioluminescence was measured by IVIS 200 imager in intact cells by adding luciferin substrate to the growth medium. Cell viability was assessed in parallel using an MTT assay.

SSC90 = test: MTT cytotoxicity assay, SSC90
HeLa [2] = test: MTT cytotoxicity assay, HeLa; settings: read-out: cytotoxicity IC50 HeLa, Tables 3A/4B/4C
Mouse Skin Keratinocytes = test: MTT cytotoxicity assay, mouse skin keratinocytes; format: cell-based; settings: Keratinocyte, read-out: IC50 Keratinocytes
Method: (§2) Cell lines and cytotoxicity assays: All cell lines were obtained from the American Type Culture Collection (ATCC) and cultured in the specified medium supplemented with 10% fetal bovine serum, 100 IU/mL penicillin, and 100 μg/mL streptomycin at 37° C. in a humidified 5% CO2/95% air incubator. […] To assess drug cytotoxicity, cells were seeded at 2,500 cells/well (10,000 cells/well for MM lines) in 100 μL medium in 96-well plate and after 24 treated with compounds for 72 h, incubated according to the manufacturer's protocol with the Thiazolyl Blue Tetrazolium Bromide (Sigma, M2128) and A570 measured using a Benchmark Plus microplate spectrophotometer (BIO-RAD). IC50 data was analyzed by Graphpad Prism software.

MM.1S = test: MTT cytotoxicity assay, MM.1S; format: cell-based; settings: Homo sapiens, MM1.S, read-out: IC50 MM.1S
Method: The cytotoxic efficacy of selected compounds was assessed against multiple myeloma (MM) cell lines, as this is a validated clinical target for the licensed proteasome inhibitors.
as §2

HeLa [3] = settings: human
A2780 = settings: human
in vitro = settings: human
Method: as §1

SiHa = test: MTT cytotoxicity assay, SiHa
DLD-Seckle = test: MTT cytotoxicity assay, DLD-Seckle; settings: read-out: cytotoxicity IC50 DLD-Seckle
Method: as §1

[4] = system: proteasome (4UbFL reporter); test: 4UbFL reporter, ES2 cells stably expressing 4UbFL; format: cell-based, human; settings: ES2 stably expressing 4UbFL, 4 h
Text: FIG. 14B illustrates fold increase in bioluminiscence of ES2 cells stably expressing 4UbFL at 4 hrs post-treatment of compounds, as measured by luminometer.
Next examined was the effect of compounds on proteasome function using a DNA construct that expresses a reporter gene comprising firefly luciferase fused to four molecules of ubiquitin (4UbFL) at its amino terminus (41). The 4UbFL is rapidly degraded by active proteasomes, resulting in a low level of enzymic activity and bioluminescence. Upon proteasome inhibition, increased 4UbFL activity can be measured by luminescence assay using luciferin as a substrate as the protein is stabilized.

MCF7 = test: MTT cytotoxicity assay, MCF7; settings: read-out: cytotoxicity IC50 MCF7, Tables 3A/4B/4C
VU93 = test: MTT cytotoxicity assay, VU93; settings: read-out: cytotoxicity IC50 VU93, Tables 3A/4B/4C
UWB1.289 = test: MTT cytotoxicity assay, UWB1.289; settings: UWB1289, read-out: cytotoxicity IC50 UWB1.289
Method: as §1

ID8-VegfDefb29 tumor = test: in vivo; format: in vivo, C57BL/6 mice
Method: To assess therapeutic efficacy the ID8-VegfDefb29 cell line was utilized in a syngeneic mouse model of ovarian cancer expressing luciferase (62). ID8 was first derived from spontaneous malignant transformation of C57BL/6 mouse ovarian surface epithelial cells in vitro (69). ID8-Vegf Defb29 cells represent a more aggressive variant of ovarian cancer in which VEGF provides vascular growth which is augmented by the presence of DEFB29 (62). C57BL/6 mice were injected i.p. with ID8-VegfDefb29 cells stably expressing firefly luciferase (0.5×10^6 cells) in PBS (100 μL). After 72 hrs, mice were imaged for their basal luminescence levels using an IVIS200 imager. Mice with visible luminescence were randomized into equal groups including vehicle (n=8), RA414 (3 mg/Kg, n=8), RA414 (10 mg/Kg, n=8) and treated every three days for up to 3 weeks. Mice were imaged every week to measure bioluminescence expressed by tumor after administration of luciferin. […] On day 24 two mice were sacrificed after collection of ascites, and the remainder required euthanasia on day 31 (FIGS. 17A and 17B). Administration of RA414 at 10 mg/kg (3 doses delivered every three days) regressed the tumor completely in 50% of the mice with less than 10% weight loss. […] This is consistent with proteasome inhibition within the ascites cells by the […] RA414 treatment regimen.
Tumor Studies: Female C57BL6 or Nude mice were inoculated with 10^6 ES2-Luciferase cells i.p. in 100 uL PBC, or ID8-VegfDefb29 syngeneic mouse model of ovarian cancer expressing luciferase (62) i.p. in 100 μL PBS. At day 3, mice were imaged for basal level luminescence activity with a Xenogen IVIS 200 after injection i.p. with luciferin (0.3 mg in 100 water). Mice were randomized into two groups (n=8) and treated i.p. with compounds or vehicle (25% (w/v) β-Hydroxypropylcyclodextrin in water), and imaged again on days 7 and 14. RA375 was administered i.p. at 10 mg/Kg.

RPE1-ATMKO = test: MTT cytotoxicity assay, RPE1-ATMKO; settings: read-out: cytotoxicity IC50 RPE1-ATMKO
Method: as §1

T22 = test: MTT cytotoxicity assay, T22; settings: read-out: cytotoxicity IC50 T22, Tables 3A/4B/4C, BRCA2 + VE
OV2008 = test: MTT cytotoxicity assay, OV2008; settings: read-out: cytotoxicity IC50 OV2008
Method: as §1

[5] = read-out: cytotoxicity IC50 SSC90, Tables 3A/4B/4C, MTT assay
[6] = Table 3, MTT, 48 hr, normal Mouse Skin
[7] = read-out: cytotoxicity IC50 SiHa, Tables 3A/4B/4C, MTT assay
[8] = 3 mg/Kg, 9 doses delivered every three days

SMILES	IC50 (TC1-Lu)	ATP-dependent bioluminescence (intracellular ATP levels) (intracellular ATP)	IC50 (SSC90; [5])	IC50 (HeLa [2])	IC50 (Mouse Skin Keratinocytes; [6])	IC50 (MM.1S; 48 h)	IC50 (HeLa [3])	IC50 (A2780)	IC50 (in vitro)	IC50 (DLD-Seckle)	IC50 (Mouse Skin Keratinocytes; Mus musculus, 48 h)	4UbFL bioluminescence [4]	IC50 (MCF7)	IC50 (SiHa; [7])	IC50 (VU93)	IC50 (UWB1.289)	IC50 (RPE1-ATMKO)	IC50 (T22)	IC50 (OV2008)	further results
CC(C)C[C@H](NC(=O)[C@H](Cc1ccccc1)NC(=O)c1cnccn1)B(O)O [Bortezomib, bortezomib, reference compound]	4.5 nM	not evident	15 nM	3 nM	> 100 nM	–	–	–	–	–	–	–	–	–	–	–	–	–	–	IC50 ([1]; RPE1 cells): 3.5 nM
O=C(CCl)N[C@@H](Cc1ccccc1)C(=O)N1C/C(=C\c2ccc([N+](=O)[O-])cc2)C(=O)/C(=C/c2ccc([N+](=O)[O-])cc2)C1 [RA375]	–	–	–	–	–	11 nM	13 nM	37 nM	41 nM	43 nM	> 1000 nM	–	–	–	–	–	–	–	–	IC50 (SSC90; read-out: IC50 SSC90): 24 nM; IC50 (SiHa; read-out: IC50 SiHa): 41 nM
CC1/C(=C\c2ccc([N+](=O)[O-])cc2)C(=O)/C(=C/c2ccc([N+](=O)[O-])cc2)CN1C(=O)[C@H](Cc1ccccc1)NC(=O)CCl (stereo partly drawn) [RA414]	40 nM	–	< 20 nM	3 nM	–	–	–	–	–	< 40 nM	–	increased bioluminescence in a dose dependent manner	75 nM	7.5 nM	40 nM	< 20 nM	< 40 nM	–	–	IC50 [1]: < 40 nM; tolerability (ID8-VegfDefb29 tumor; [8]): well tolerated; tumor growth (ID8-VegfDefb29 tumor; [8]): inhibited tumor growth; mice with tumor regressed completely (ID8-VegfDefb29 tumor; 10 mg/kg, 3 doses delivered every three days): 50%; mice that did not tolerate the dose (>10% weight loss) or died (ID8-VegfDefb29 tumor; 10 mg/kg, 3 doses delivered every three days, tumor-bearing mice): 50%
C[C@H]1/C(=C\c2ccc([N+](=O)[O-])cc2)C(=O)/C(=C/c2ccc([N+](=O)[O-])cc2)CN1C(=O)[C@@H](N)Cc1ccccc1	114 nM	reduced bioluminescence	–	–	–	–	23 nM	20 nM	41 nM	55 nM	–	increased bioluminescence in a dose dependent manner	–	34 nM	–	43.9 nM	24 nM	1360 nM	40 nM	tumor burden compared to vehicle (ID8-VegfDefb29 tumor; 15 mg/Kg every 3 days, total 5 doses, day 17, p<0.0001): significant decrease in tumor burden
N[C@@H](Cc1ccccc1)C(=O)N1C/C(=C\c2ccc(Cl)c(Cl)c2)C(=O)/C(=C/c2ccc(Cl)c(Cl)c2)C1 [RA190, reference compound]	–	–	625 nM	85 nM	> 1000 nM	–	–	–	–	–	–	–	750 nM	603 nM	625 nM	–	–	16300 nM	–	IC50 (MM.1S; Table 3, MTT, 48 hr, Multiple Myeloma): 72 nM
N[C@@H](Cc1ccccc1)C(=O)N1C/C(=C\c2ccc([N+](=O)[O-])cc2)C(=O)/C(=C/c2ccc([N+](=O)[O-])cc2)C1 [RA183, reference compound]	–	reduced bioluminescence	–	112 nM	–	46 nM	–	–	–	–	> 1000 nM	–	–	263 nM	–	–	–	–	80 nM	IC50 (SiHa; read-out: IC50 SiHa, Table 3, MTT, 48 hr, Cervical (HPV +ve)): 263 nM

— patent US12673918B2, “Small molecule RPN13 inhibitors with antitumor properties” (The Johns Hopkins University, priority 2019, dated 2026)
